From patent US6939893B2, “Method of reducing toxicity of anticancer agents” (priority 2002, dated 2005)
Where two headings read alike, the source gives them in different places.

Key:
normal nude mice [1] = assay: Effect of MSC on in vivo toxicity of irinotecan in normal nude mice (Example 1, FIG. 1); details: for protection provided by MSC: MSC 0.2 mg/mouse/day ×42 p.o.
Procedure: The data are combined from at least three independent experiments with five (5) animals per experiment.
To illustrate this embodiment, nude mice were administered 42 single, daily oral doses of 0.2 mg/mouse of MSC.

normal rats = assay: Effect of MSC on toxicity of irinotecan in normal rats (Example 2, FIG. 2); type: in vivo
Excerpt: The data are combined from 2-5 independent experiments with four (4) animals for each experiment.

normal nude mice [2] = assay: Comparison of MSC and SLM as modulators of irinotecan toxicity in normal nude mice (Example 5, FIG. 4); type: in vivo
Excerpt: Each experimental group had 10 mice each from two (2) independent experiments.

normal mice = assay: Role of MSC dose in modulating irinotecan toxicity in normal mice (Example 6); type: in vivo
Excerpt: In order to identify the minimum dose of MSC in the successful modulation of drug induced toxicities. […] Those skilled in the art will recognize that by conducting experiments as described herein, optimal doses of selenium for reducing toxicity of other chemotherapeutic agents and other anticancer modalities can be easily determined.

[3] = test system: squamous cell carcinoma of the head and neck (A253); details: MSC 0.2 mg/mouse/d × 42 p.o. where combined
normal nude mice [4] = test system: normal nude mice
normal nude mice [5] = assay: Effect of MSC on toxicity of irinotecan, taxol, FU and cisplatin in normal nude mice (Example 4, FIG. 3); type: in vivo; details: toxic doses above MTD: irinotecan weekly, taxol 75 mg/kg, 5-FU 150 mg/kg, cisplatin 15 mg/kg once i.v.
Excerpt: In all cases drug doses used were toxic and above the maximum tolerated dose.

rats = assay: Renal function test after CDDP ± MSC treatment in rats (Example 8); type: in vivo
Procedure: Reversal of renal toxicity induced by Cisplatin (CDDP). The dose limiting toxicity of therapeutic doses of cisplatin is kidney toxicity. Studies were performed to identify blood biological markers modified by CDDP and to evaluate the ability of MSC to reverse the process. Four groups of six animals each were used. The first group was untreated rats (control), the second group was given MSC at 0.75 mg/rat/day for 20 days and samples collected 2 hours after MSC administration on day 20. The third group was administered CDDP alone at 6 mg/kg by a single
i.v. injection and samples were collected on day 6. The fourth group was adminstered MSC (0.75 mg/rat/day for 20 days) with CDDP (6 mg/kg). CDDP was given 14 days after MSC administration and […] was given for 6 more days after CDDP administration. Samples were collected on day 6 after CDDP administration. Blood samples were collected at postmortem by cardiac puncture. Serum was obtained from the blood samples and urea nitrogen and creatinine concentrations were determined by standard methods using commercially kits (Ortho Clinical Diagnostics).

[6] = irinotecan 100 mg/kg/wk ×4 i.v. alone
[7] = irinotecan 200 mg/kg/wk×4 i.v. alone
[8] = irinotecan 100 mg/kg/wk × 4 i.v.
[9] = day 22, 24 h after third irinotecan dose, irinotecan 200 mg/kg, MSC 0.2 mg/mouse
[10] = serum, Mean ± SD, CDDP 6 mg/kg single i.v., MSC 0.75 mg/rat daily for 20 days

CCc1c2c(nc3ccc(OC(=O)N4CCC(N5CCCCC5)CC4)cc13)-c1cc3c(c(=O)n1C2)COC(=O)[C@]3(O)CC [Irinotecan, irinotecan, reference compound]
animals survived treatment (normal nude mice [1]; [6]): 100%
weight loss (normal nude mice [1]; [6]): less than 20%
animals died by the end of treatment (normal nude mice [1]; [7]): 55%
maximum tolerated dose (MTD) (normal nude mice [1]; normal nude mice, irinotecan i.v. weekly ×4): 100 mg/kg/wk
animals died (normal rats; rats, irinotecan 200 mg/kg/day for 3 days i.v. (twice MTD), MSC 1 mg/kg/rat daily ×18 p.o.): all the animals
lethality (normal nude mice [2]; [7]): approximately 55%
survivors (normal nude mice [2]; [7]): 45%
lethality (normal mice; irinotecan 200 mg/kg/wk×4 alone): 50%
Response Rate (%) CR [3, 8]: 20%
Response Rate (%) PR [3, 8]: 20%
Survivors (%) [3, 8]: 100%
Survivors (%) ([3]; irinotecan 200 mg/kg/wk × 4 i.v.): 45%
Survivors (%) ([3]; irinotecan 300 mg/kg/wk × 4 i.v.): 0%
HCT: haematocrit (normal nude mice [4]; [9]): 40.9 ± 4.2%
MCH: mean corpuscular hemoglobin (normal nude mice [4]; [9]): 17.5 ± 0.3 PICO Grams
MCHC: mean corpuscular hemoglobin concentration (normal nude mice [4]; [9]): 32.7 ± 0.6%
PLT: platelets (normal nude mice [4]; [9]): 836 ± 201 THSN/CU MM
RBC: red blood cell (normal nude mice [4]; [9]): 7.8 ± 1.0 Mill/CU MM
WBC: white blood cell (normal nude mice [4]; [9]): 3.5 ± 0.5 THSN/CU MM
WBC: white blood cell (normal nude mice [4]; day 22, 24 h after third irinotecan dose, irinotecan 200 mg/kg, MSC 0.2 mg/mouse, listed as irinotecan): 3.5 THSN/CU MM
reduction in white blood cells (normal nude mice [4]; irinotecan 200 mg/kg/wk, versus control (9.4 to 3.5)): over 60%

C[Se]C[C@H](N)C(=O)O [MSC, methylselenocysteine]
effect of adding MSC on overall body weight loss (normal nude mice [1]; irinotecan 100 mg/kg/wk ×4 i.v. + MSC 0.2 mg/mouse/day ×42 p.o.): decrease in overall body weight loss
protection provided by MSC (normal nude mice [1]; irinotecan 200 mg/kg/wk×4 (twice MTD)): 100%
animals survived (normal nude mice [1]; irinotecan 200 mg/kg/wk×4 i.v. with MSC 0.2 mg/mouse/day ×42 p.o.): 100%
protection provided by MSC (normal nude mice [1]; irinotecan 300 mg/kg/wk×4 (three times MTD)): 80%
animals with severe diarrhea completely protected by MSC (normal rats; rats (FIG. 2), irinotecan 200 mg/kg dose): 50%
effect of MSC on the survival rate of animals (normal nude mice [5]): protective effect
reduction of irinotecan toxicity by selenium compound (normal nude mice [2]; irinotecan 200 mg/kg/wk×4 i.v., selenium compound p.o. daily for 28 days, first dose 7 days before irinotecan): equally effective in reducing toxicity
MSC dose sufficient for complete protection against lethal doses of irinotecan (normal mice; MSC 0.01 to 0.2 mg/mouse/day×42 with irinotecan 200 mg/kg/wk×4): ≤ 0.01 mg/mouse
lethality with the combination (normal mice; MSC as low as 0.01 mg/mouse with irinotecan 200 mg/kg/wk×4): no lethality
reversal of markers associated with kidney toxicity (BUN and creatinine) (rats; MSC 0.75 mg/rat/day with CDDP 6 mg/kg): highly effective
Blood Urea Nitrogen (rats; [10]): 12.7 ± 1.2 mg/dL
Creatinine (rats; [10]): 0.30 ± 0.00 mg/dL
prevention of neutropenia toxicity induced by irinotecan (normal nude mice [4]; MSC 0.2 mg/mouse/day with irinotecan 200 mg/kg/wk): effectively prevent neutropenia toxicity
HCT: haematocrit (normal nude mice [4]; [9]): 49.4 ± 2.4%
HGB: hemoglobin (normal nude mice [4]; [9]): 16.8 ± 0.7 Gram/DL
MCH: mean corpuscular hemoglobin (normal nude mice [4]; [9]): 18.4 ± 0.7 PICO Grams
MCHC: mean corpuscular hemoglobin concentration (normal nude mice [4]; [9]): 34.0 ± 0.7%
MCV: mean corpuscular volume (normal nude mice [4]; [9]): 54.0 ± 1.0 CU Microns
PLT: platelets (normal nude mice [4]; [9]): 756 ± 231 THSN/CU MM
RBC: red blood cell (normal nude mice [4]; [9]): 9.1 ± 0.5 Mill/CU MM
WBC: white blood cell (normal nude mice [4]; [9]): 10.3 ± 4.5 THSN/CU MM
protection against hematologic toxicity induced by irinotecan (normal nude mice [4]; irinotecan 200 mg/kg/wk×4): complete protection
